Assay results from PMC3497017, “Antioxidant and Anti-Protease Activities of Diazepinomicin from the Sponge-Associated Micromonospora Strain RV115” (Marine Drugs, 2012).

Molecular target: T1, human cathepsin L (Homo sapiens, UniProt P07711)
T1 construct: gene CTSL
Assay: fluorogenic Cbz-Phe-Arg-AMC hydrolysis with inner-filter correction, confirmed by HPLC-based assay
Format: biochemical

T1 sequence (P07711 114-288): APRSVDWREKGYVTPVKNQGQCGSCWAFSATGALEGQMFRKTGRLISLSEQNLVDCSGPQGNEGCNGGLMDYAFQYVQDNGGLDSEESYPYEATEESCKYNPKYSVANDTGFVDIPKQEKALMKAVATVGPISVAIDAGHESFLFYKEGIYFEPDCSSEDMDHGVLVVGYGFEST
T1 sequence (P07711 292-333): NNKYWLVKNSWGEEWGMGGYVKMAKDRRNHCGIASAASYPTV

SMILES: CC(C)=CCC/C(C)=C/CC/C(C)=C/CN1C(=O)c2cccc(O)c2Nc2c(O)cc(O)cc21 [compound 1, diazepinomicin]
- IC50: 72.4 ± 5.3 µM
